Test results: patent US12391650B2, “Catecholamine prodrugs for use in the treatment of Parkinson's disease” (H. Lundbeck A/S, priority 2019, dated 2025)
Like-named read-outs stand apart in the source and are kept apart here.

Experiments:
human 5-HT2B receptor = target: T1, human 5-HT2B receptor (Homo sapiens, UniProt P41595); assay: 5-HT2B agonist activity assay (IP1 production, HTRF, transfected CHO cells); type: cell-based
T1 construct: host or cells: CHO cells
Protocol: Evaluation of the agonist activity of compounds (I), (Ia), (Ib), (Ic), compound (2), compound (3), compound (6), compound (8), and compound (9) at the human 5-HT2B receptor was performed by Eurofins/Cerep (France) measuring the compound effects on inositol monophosphate (IP1) production using the HTRF detection method. Briefly, the human 5-HT2B receptor was expressed in transfected CHO cells. The cells were suspended in a buffer containing 10 mM Hepes/NaOH (pH 7.4), 4.2 mM KCl, 146 mM NaCl, 1 mM CaCl2, 0.5 mM MgCl2, 5.5 mM glucose and 50 mM LiCl, then distributed in microplates at a density of 4100 cells/well and incubated for 30 minutes at 37° C. in the presence of buffer (basal control), test compound or reference agonist. For stimulated control measurement, separate assay wells contained 1 μM 5-HT. Following incubation, the cells were lysed and the fluorescence acceptor (fluorophen D2-labeled IP1) and fluorescence donor (anti-IP1 antibody labeled with europium cryptate) were added. After 60 minutes at room temperature, the fluorescence transfer was measured at lambda(Ex) 337 nm and lambda(Em) 620 and 665 nm using a microplate reader (Rubystar, BMG). The IP1 concentration was determined by dividing the signal measured at 665 nm by that measured at 620 nm (ratio). The results were expressed as a percent of the control response to 1 μM 5-HT. The standard reference agonist was 5-HT, which was tested in each experiment at several concentrations to generate a concentration-response curve from which its EC50 value is calculated as described above for dopamine functional assays.

[1] = various animal models relevant for Parkinson's Disease; cited from earlier work
[2] = PK experiments in rats after oral dosing, plasma compound (I); type: in vivo, Han Wistar rats; settings: Wistar rats; for Observed metabolite, in vivo PK study after oral dosing (rats): plasma
Protocol: Plasma was placed on water-ice following collection. Final storage at approximately −70° C.
Mobile phase B: Acetonitrile. […] Flow rate 0.5 mL/min.
The rats had unrestricted access to the diet.
Mobile phase B: Acetonitrile+0.2% formic acid. […] Flow rate 0.3 mL/min.
Dosing and blood sampling for compound (Ic), compound (2), compound (3), compound (8), and compound (9): Han Wistar rats were supplied by Envigo, UK. […] The rats received a standard laboratory diet Teklad 2014C. The rats had unrestricted access to the diet. […] Rats were given 494 μg/kg (Ic), 392 μg/kg compound (8), 426 μg/kg compound (9), 359 μg/kg compound (3) and 551 μg/kg compound (2).

[3] = rats; cited from earlier work
[4] = human hepatocytes; cited from earlier work
[5] = rat hepatocytes; cited from earlier work
[6] = Conversion of compounds in human plasma; type: in vitro ADME; settings: for Observed metabolite, incubation in human plasma: 1 μM test compound, 37° C., 0-6 hours
Protocol: Frozen human plasma was thawed and then centrifuged at 3200×g for 5 minutes to remove debris. The pH value of the supernatant was then measured and adjusted to 7.4±0.1 by adding 1% phosphoric acid or 1 N sodium hydroxide. 2 μL of dosing solution (50 μM for test compounds and 100 μM for positive control (propantheline bromide)) was mixed with 98 μL of blank plasma to achieve 1 μM test compound and 2 μM positive control of final concentration. The mixture was incubated, and samples were withdrawn from the incubations at the pre-determined time points of 0, 0.5, 1, 2, 4 and 6 hours (in duplicate) at 37° C. in water bath. At each corresponding time point 10 μL inhibitor and 20 μL ascorbic acid and 2 μL formic acid (20%) are added, and then added 400 μL of “stop solution” (200 ng/mL tolbutamide plus 200 ng/mL labetalol in 50% ACN/MeOH) to precipitate protein. The substance was mixed thoroughly and thereafter centrifugated at 4,000 rpm for 20 minutes. Then an aliquot of supernatant (50 μL) was transferred from each well to a sample plate and mixed with 100 μL ultrapure water. The plate was shaked at 800 rpm for about 10 minutes before submitting to LC-MS/MS analysis.
Instrumentation used for analysis of plasma and hepatocyte incubation samples:
Mass spectrometer (LC-MS/MS) Shimadzu LC 20-AD Shimadzu UHPLC API 4000. Analytical column ACQUITY UPLC® BEH Phenyl 1.7 μm 2.1×50 mm. Mobile phase A: 0.1% Formic Acid in water. Mobile phase B: 0.1% formic acid in acetonitrile. […] Flow rate 0.7 mL/min.

[7] = rats; cited from earlier work; remark: listed apart in the source
[8] = Conversion of compounds in human hepatocytes; type: in vitro ADME; settings: 1 μM compound, 37° C.
Protocol: Incubations were conducted in 96-well plates at 1 μM compound concentration in duplicate. The hepatocyte cell concentration was 0.5×10^6 cells/mL used for final incubation at 37° C. in an incubator of 5% CO2 95% relative humidity. The medium control samples were included at 0 and 60 minutes in the absence of cells. The total organic concentration was 1% (DMSO 0.1%) in the final incubation. The controls, (7-ethoxycoumarin and 7-hydroxycoumarin) was incubated parallel at […]. 2 μL of dosing solution (50 μM for test compounds and 100 μM for positive control) was mixed with 98 μL of 100 mM PBS to achieve 1 μM test compound and 2 μM positive control of final concentration. The mixture was incubated, and samples were withdrawn from the incubations at pre-determined time points of 0, 0.5, 1, 2, 4 and 6 hours (in duplicate) at 37° C. in water bath. To each sample, 10 μL inhibitor and 20 μL ascorbic acid and 2 μL formic acid (20%) were added followed by 400 μL of stop solution (200 ng/mL tolbutamide plus 200 ng/mL labetalol in 50% ACN/MeOH). The substance was mixed thoroughly and thereafter centrifuged at 4,000 rpm for 20 minutes. An aliquot of supernatant (50 μL) from each well were transferred to a sample plate and mixed with 100 μL ultrapure water. The plate was shaked at 800 rpm for about 10 minutes before submitting to LC-MS/MS analysis. […]

[9] = PD patients, intravenous (IV); cited from earlier work
[10] = man, oral dosing, extensive hepatic first-pass metabolism; cited from earlier work
[11] = percent of the control response to 1 μM 5-HT

T1 sequence (P41595 whole entry): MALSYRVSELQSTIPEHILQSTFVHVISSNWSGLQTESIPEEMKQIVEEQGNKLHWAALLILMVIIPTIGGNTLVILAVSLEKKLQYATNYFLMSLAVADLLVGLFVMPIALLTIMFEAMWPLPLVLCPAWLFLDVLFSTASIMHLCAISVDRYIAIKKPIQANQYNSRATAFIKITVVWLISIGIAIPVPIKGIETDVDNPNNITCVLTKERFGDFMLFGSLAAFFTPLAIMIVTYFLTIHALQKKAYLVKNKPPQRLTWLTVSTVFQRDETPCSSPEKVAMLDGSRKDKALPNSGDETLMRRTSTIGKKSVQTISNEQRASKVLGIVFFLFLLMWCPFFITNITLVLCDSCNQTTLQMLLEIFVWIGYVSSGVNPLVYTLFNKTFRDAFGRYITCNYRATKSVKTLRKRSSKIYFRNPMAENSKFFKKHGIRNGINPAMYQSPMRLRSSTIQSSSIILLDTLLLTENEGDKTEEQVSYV

| Structure (SMILES) | In vivo pharmacology, efficacy [1] | Plasma concentration profile of compound (I) after oral dosing, in words [2] | Observed metabolite, in vivo PK study after oral dosing (rats) [2] | Observed metabolite, incubation in human plasma [6] | 5-HT2B % effect @ 10 μM (human 5-HT2B receptor; [11]) [% @ 10 μM] | other results |
| --- | --- | --- | --- | --- | --- | --- |
| CCCN1CCC[C@@H]2CC3=C(CCCC3=O)C[C@H]21 [(Ia), reference compound] | effective | early and high peak plasma concentrations of compound (I) | – | – | – | 5-HT2B % effect @ 30 μM (human 5-HT2B receptor; 30 μM, percent of the control response to 1 μM 5-HT): 58%; Conversion to the active compound (I) [3]: converted to the active compound (I) |
| CCCN1CCC[C@@H]2Cc3c(ccc4c3OCO4)C[C@H]21 [(Ib), (6aR,10aR)-7-propyl-6,6a,7,8,9,10,10a,11-octahydro-[1,3]dioxolo[4′,5′:5,6]benzo[1,2-g]quinoline] | effective | early and high peak plasma concentrations of compound (I) | – | – | – | 5-HT2B receptor agonism, in words (human 5-HT2B receptor): agonist of the 5-HT2B receptor; Conversion to compound (I) [4]: demonstrated; Conversion to compound (I) [5]: demonstrated |
| CCCN1CCC[C@@H]2Cc3c(ccc(O)c3OP(=O)(O)O)C[C@H]21 [Compound (8), (4aR,10aR)-7-hydroxy-1-propyl-1,2,3,4,4a,5,10,10a-octahydrobenzo[g]quinolin-6-yl dihydrogen phosphate] | – | – | Compound (1) | Compound (1) | – | 5-HT2B % effect @ 1 μM (human 5-HT2B receptor; 1 μM, percent of the control response to 1 μM 5-HT): 0% @ 1 μM |
| CCCN1CCC[C@@H]2Cc3c(ccc(O)c3O)C[C@H]21 [compound (I), (4aR,10aR)-1-n-Propyl-1,2,3,4,4a,5,10,10a-octahydro-benzo[g]quinoline-6,7-diol] | effective | – | – | – | – | Oral bioavailability, in words [7]: low oral bioavailability; Half-life in the plasma assay ([6]; human plasma, in words): short half-life |
| CCCN1CCC[C@@H]2Cc3c(ccc(OCc4ccccc4)c3O)C[C@H]21 [Compound (2), (4aR,10aR)-7-(benzyloxy)-1-propyl-1,2,3,4,4a,5,10,10a-octahydrobenzo[g]quinolin-6-ol] | – | – | Compound (1) | Compound (1) | 30 | Observed metabolite, incubation in human hepatocytes [8]: Compound (1) |
| CCCN1CCC[C@@H]2Cc3c(ccc(OC)c3O)C[C@H]21 [Compound (3), (4aR,10aR)-7-methoxy-1-propyl-1,2,3,4,4a,5,10,10a-octahydrobenzo[g]quinolin-6-ol] | – | – | Compound (1) | – | 27 | Observed metabolite, incubation in human hepatocytes [8]: Compound (1) |
| CCCN1CCC[C@@H]2Cc3c(ccc(OC(=O)C(C)(C)C)c3OC(=O)C(C)(C)C)C[C@H]21 [(Ic), reference compound] | – | extremely low | – | – | −5 | – |
| CCC[N@+]1(COP(=O)([O-])O)CCC[C@@H]2Cc3c(ccc(O)c3O)C[C@H]21 [Compound (9), ((1S,4aR,10aR)-6,7-dihydroxy-1-propyl-1,2,3,4,4a,5,10,10a-octahydrobenzo[g]quinolin-1-ium-1-yl)methyl hydrogen phosphate] | – | – | Compound (1) | Compound (1) | −1 | – |
| CCCN1CCC[C@@H]2Cc3c(ccc(OP(=O)(O)O)c3OP(=O)(O)O)C[C@H]21 [Compound (6), (4aR,10aR)-1-propyl-1,2,3,4,4a,5,10,10a-octahydrobenzo[g]quinoline-6,7-diyl bis(dihydrogen phosphate)] | – | – | – | Compound (8) | 4 | Observed metabolite, incubation in human plasma ([6]; listed as compound (6)): compound (8) was formed; Appearance of compound (I) in incubation ([6]; human plasma, in words): no appearance of compound (I) was observed |
| CCCc1cc2c(s1)CN[C@@H]1CCc3cc(OC(C)=O)c(OC(C)=O)cc3[C@@H]21 [Adrogolide] | – | – | – | – | – | Antiparkinson efficacy [9]: comparable to that of L-DOPA; Oral bioavailability [10]: ~4% |
